Consider 3 compounds from patent publication US7067619B2, “Integrin-binding peptides” (La Jolla Cancer Research Foundation, priority 1993, dated 2006).

Bridge positions count the residues as written; N and C are the ends. Ends that are not written are not given here. Peptide text beside a SMILES is read from it.

One data set concerns the target αvβ5 integrin (Homo sapiens, UniProt P06756+P18084). Nature of the data set: Panning and binding of peptide-displaying phage on αvβ5 integrin. Details: The αvβ3, αvβ5 and α5β1 integrins were isolated from human placental extracts; from tissue; host or cells: human placenta. An excerpt: (§1) In addition, most of the phage-binding activity in the αvβ3 preparation was captured into microliter wells coated with antibodies against the αv or β3 subunits as described previously (Koivunen et al., J. Biol. Chem., 268:20205–10 (1993). The αIIbβ3 integrin was isolated from outdated platelets (Pytela et al., Science, 231:1559–1562 (1986)).
(§2) Peptide libraries were constructed in fuse 5 vector (Scott and Smith, Science 249:386–390 (1990)) as described previously (Koivunen et al., J. Cell Biol., 124:373–380 (1994). The CX5C, CX6C, CX7C and CX9 [SEQ ID NOs:39–42, respectively] libraries were prepared using synthetic oligonucleotides containing core sequences TGT(NNK)5TGT, TGT(NNK)6TGT, TGT(NNK)7TGT and TGT(NNK)9 [SEQ ID NOS:43–46, respectively] (N=equal molar mixture of A, C, G, T; K=G or T), respectively. The oligonucleotides were made double-stranded by PCR amplification with 5 cycles, purified and ligated to the N-terminus of pIII gene of fuse 5 vector. […]
(§3) Binding of individual cloned phage to integrins was studied in microliter wells as described in Koivunen et al., J. Cell. […] Phage that were bound were determined by their ability to infect F-pilus positive K91kan bacteria. Bacteria were grown overnight in microliter wells in the presence of tetracycline and the absorbance indicative of bacterial growth was read at 600 nm with an ELISA plate reader.

The target of another data set is αvβ3 integrin (Homo sapiens, UniProt P05106+P06756). In words: Panning and binding of peptide-displaying phage on αvβ3 integrin. Also on record: The αvβ3, αvβ5 and α5β1 integrins were isolated from human placental extracts; from tissue; host or cells: human placenta. Particulars: phage-displayed sequence.
Text: as §1, §2, §3

Data set [1] can be described thus: Precipitation behaviour of the peptide in solution. Type of data set: physicochemical. The following applies: neutral pH.
The subject of the next data set is αvβ1 integrin. In words: Attachment of αvβ1-expressing B2/v7 cells to immobilized […] peptide. The format is cell-based. From the text: Cell lines expressing fibronectin-binding integrins were used to determine peptide activities against these integrins in the cell attachment assay described by Ruoslahti et al., Meth. Enzymol., 144:803–831 (1982), which is incorporated herein by reference. Human plasma fibronectin was iodinated as described by Morla and Ruoslahti, J. Cell Biol., 118:421–429 (1992), which is incorporated herein by reference. Vitronectin was obtained from Telios Pharmaceuticals (San Diego, Calif.). […] Peptide was coated on plastic by incubating at 37° C. for 2 hours in phosphate buffered saline containing 0.25% glutaraldehyde to crosslink the peptide. Free binding sites on the plastic were blocked using BSA. Approximately 1×10^5 cells per well were allowed to attach for 1 hour in the presence or absence of competing peptides. Bound cells were quantitated by staining with 0.1% amido black.
In addition to the inhibition of cell attachment to natural ligands, attachment and inhibition assays were performed using the […] [SEQ ID NO:6] peptide as substrate. The microliter well were coated with […] [SEQ ID NO:6] using glutaraldehyde as described above. […] Bound cells were quantitated by staining with 0.1% amido black.

αvβ5 integrin, sequence (P06756 31-889 limits assumed): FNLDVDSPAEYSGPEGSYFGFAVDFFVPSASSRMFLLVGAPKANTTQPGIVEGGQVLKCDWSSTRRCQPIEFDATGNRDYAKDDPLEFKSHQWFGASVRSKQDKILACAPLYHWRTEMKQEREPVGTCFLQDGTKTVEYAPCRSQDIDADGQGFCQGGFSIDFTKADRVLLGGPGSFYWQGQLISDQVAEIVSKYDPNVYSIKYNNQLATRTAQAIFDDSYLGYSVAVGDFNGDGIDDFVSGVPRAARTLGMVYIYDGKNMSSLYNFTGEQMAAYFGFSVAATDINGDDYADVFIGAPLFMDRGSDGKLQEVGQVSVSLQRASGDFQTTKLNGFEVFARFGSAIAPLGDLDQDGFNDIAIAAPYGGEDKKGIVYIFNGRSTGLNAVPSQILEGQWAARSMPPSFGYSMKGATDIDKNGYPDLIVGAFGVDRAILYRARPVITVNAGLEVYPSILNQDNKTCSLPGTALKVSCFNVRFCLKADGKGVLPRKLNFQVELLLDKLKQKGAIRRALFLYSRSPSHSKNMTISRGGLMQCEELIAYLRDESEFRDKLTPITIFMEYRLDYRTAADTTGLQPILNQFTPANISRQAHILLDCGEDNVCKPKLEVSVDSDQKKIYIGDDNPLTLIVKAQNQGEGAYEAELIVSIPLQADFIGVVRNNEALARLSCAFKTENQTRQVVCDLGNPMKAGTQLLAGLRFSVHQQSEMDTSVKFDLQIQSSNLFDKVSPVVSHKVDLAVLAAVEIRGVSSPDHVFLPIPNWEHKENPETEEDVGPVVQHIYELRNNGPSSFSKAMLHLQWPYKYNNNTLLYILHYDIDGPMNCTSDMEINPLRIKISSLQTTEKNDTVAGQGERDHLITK
αvβ5 integrin, sequence (P06756 891-1048 partner limits assumed): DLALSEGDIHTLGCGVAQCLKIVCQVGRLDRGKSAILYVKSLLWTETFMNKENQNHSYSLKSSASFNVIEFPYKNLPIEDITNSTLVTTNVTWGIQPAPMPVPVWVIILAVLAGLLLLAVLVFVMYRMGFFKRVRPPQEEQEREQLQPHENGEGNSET
αvβ5 integrin, sequence (P18084 24-799): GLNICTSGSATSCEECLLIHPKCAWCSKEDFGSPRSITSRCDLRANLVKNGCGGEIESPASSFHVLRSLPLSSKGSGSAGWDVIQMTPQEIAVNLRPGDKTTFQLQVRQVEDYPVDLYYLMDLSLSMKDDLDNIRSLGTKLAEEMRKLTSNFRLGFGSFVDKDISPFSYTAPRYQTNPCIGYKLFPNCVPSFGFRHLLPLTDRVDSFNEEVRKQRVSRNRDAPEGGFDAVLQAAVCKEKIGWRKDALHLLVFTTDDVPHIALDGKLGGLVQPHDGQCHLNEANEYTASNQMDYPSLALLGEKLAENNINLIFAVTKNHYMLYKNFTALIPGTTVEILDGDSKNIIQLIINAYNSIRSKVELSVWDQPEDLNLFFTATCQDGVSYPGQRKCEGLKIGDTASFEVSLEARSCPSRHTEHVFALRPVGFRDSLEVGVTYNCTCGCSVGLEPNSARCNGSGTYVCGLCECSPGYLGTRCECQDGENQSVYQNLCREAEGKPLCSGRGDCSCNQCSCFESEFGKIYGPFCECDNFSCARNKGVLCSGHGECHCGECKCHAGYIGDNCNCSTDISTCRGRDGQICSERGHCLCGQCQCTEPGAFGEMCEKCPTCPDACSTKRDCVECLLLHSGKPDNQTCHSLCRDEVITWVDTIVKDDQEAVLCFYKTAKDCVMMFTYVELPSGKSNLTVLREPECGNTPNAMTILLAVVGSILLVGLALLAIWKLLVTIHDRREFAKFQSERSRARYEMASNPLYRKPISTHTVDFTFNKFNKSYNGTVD
αvβ3 integrin, sequence (P06756 31-889 limits assumed): as the sequence (P06756 31-889 limits assumed) above
αvβ3 integrin, sequence (P06756 891-1048 partner limits assumed): as the sequence (P06756 891-1048 partner limits assumed) above
αvβ3 integrin, sequence (P05106 27-788): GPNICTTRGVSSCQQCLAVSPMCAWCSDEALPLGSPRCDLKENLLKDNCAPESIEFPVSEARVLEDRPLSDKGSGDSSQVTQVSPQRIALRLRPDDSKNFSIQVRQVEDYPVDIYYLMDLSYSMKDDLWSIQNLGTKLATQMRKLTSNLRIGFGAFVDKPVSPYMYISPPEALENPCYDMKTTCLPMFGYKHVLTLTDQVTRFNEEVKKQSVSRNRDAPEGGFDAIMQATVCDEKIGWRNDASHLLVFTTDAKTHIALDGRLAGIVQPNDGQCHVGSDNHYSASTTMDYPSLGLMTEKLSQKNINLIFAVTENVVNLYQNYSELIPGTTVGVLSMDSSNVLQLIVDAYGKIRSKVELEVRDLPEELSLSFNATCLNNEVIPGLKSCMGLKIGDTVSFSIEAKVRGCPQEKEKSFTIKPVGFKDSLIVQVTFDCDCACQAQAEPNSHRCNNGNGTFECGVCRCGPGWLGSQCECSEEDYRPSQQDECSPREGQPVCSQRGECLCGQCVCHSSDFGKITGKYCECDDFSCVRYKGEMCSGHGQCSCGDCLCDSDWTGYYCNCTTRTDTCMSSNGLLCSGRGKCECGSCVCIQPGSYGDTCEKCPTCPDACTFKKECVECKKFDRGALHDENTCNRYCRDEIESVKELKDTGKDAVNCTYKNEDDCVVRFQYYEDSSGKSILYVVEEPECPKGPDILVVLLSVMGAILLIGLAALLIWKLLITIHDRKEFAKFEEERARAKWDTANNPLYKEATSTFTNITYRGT

For the compound `C[C@H](N)C(=O)N[C@H]1CSSC[C@@H](C(=O)NCC(=O)O)NC(=O)[C@H](Cc2ccccc2)NC(=O)[C@@H]2CSSC[C@H](NC(=O)[C@H](CC(=O)O)NC1=O)C(=O)N[C@@H](CCCNC(=N)N)C(=O)NCC(=O)N[C@@H](CC(=O)O)C(=O)N2` (H-ACDCRGDCFCG-OH; disulfide 2-10, 4-8), the “integrin preference of phage expressing the peptide” value on αvβ5 integrin (phage attachment experiments) was “bound preferentially to the αvβ5 integrin”. In addition, the “binding of peptide-displaying phage to the αvβ5 integrin” value at αvβ5 integrin (phage-displayed sequence) is recorded as “bound strongly”.
In the case of “A*CPSRLDSPC*G (ACPSRLDSPCG; disulfide 2-10 (inferred))”, in the data set with αvβ3 integrin, the “binding of peptide-displaying phage to the αvβ3 integrin” value is on record as “bound to αvβ3”. Also, the “precipitation of the peptide” value in data set [1] was “tendency of the peptide precipitate at neutral pH”.
As to GACRRETAWACGA, in the data set on αvβ1 integrin, the “peptide coating concentration required to produce significant attachment” value was found to be 1 mg/mL.
